Tests used:
ERβ LBD = ERβ LBD (Homo sapiens, UniProt Q92731); experiment: DSF on purified ERβ LBD; details: compound 500 µM; unliganded Tm ∼51°C
Description: Protein stability was assessed with DSF in absence or presence of test compounds in a LightCycler 480 II qRT-PCR Detection System (Roche) in 384-well format. Sypro-Orange dye (Life Technologies) was used to monitor fluorescence, with filters for fluorescence excitation at 465 nm and for fluorescence emission at 610 nm. […] Tested sample mixtures were heated from 25°C to 96°C at a rate of 0.05°C/sec with 11 acquisitions per °C. Each compound was tested in duplicates. The melting temperature (Tm) for each sample was deduced by the ThermoQ Analytical software (HMRI) from the first derivative of the corresponding denaturation curve generated by the LightCycler 480 software. The same protocol was applied to investigate the stability of purified ERβ and LXRβ LBDs in presence or absence of the compounds. The optimal final concentrations for these experiments were 0.02 mg/mL for ERβ LBD and 0.20 mg/mL for LXRβ LBD. All DSF-based analyses were performed using freshly purified protein.

TLX LBD = TLX LBD (Homo sapiens, UniProt Q9Y466); experiment: Differential scanning fluorimetry (DSF) on purified TLX LBD;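 further: thermal unfolding followed by Sypro-Orange fluorescence (excitation 465 nm, emission 610 nm) in 384-well plates, Tm taken from the first derivative of the denaturation curve, duplicate samples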; type: binding; set-up: cDNA fragments encoding human TLX LBD (a.a. 187–385) were cloned; His6 followed by TEV protease cleavage site (N); made in house; host or cells: E. coli BL21 (DE3) star; details: compound 500 µM
Chain of TLX LBD (Q9Y466 187-385): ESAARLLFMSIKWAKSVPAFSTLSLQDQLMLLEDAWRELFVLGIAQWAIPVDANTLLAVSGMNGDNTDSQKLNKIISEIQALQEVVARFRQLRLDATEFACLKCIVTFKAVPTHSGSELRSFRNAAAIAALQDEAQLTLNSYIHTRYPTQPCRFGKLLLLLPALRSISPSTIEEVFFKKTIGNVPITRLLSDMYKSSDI
Description: Protein stability was assessed with DSF in absence or presence of test compounds in a LightCycler 480 II qRT-PCR Detection System (Roche) in 384-well format. Sypro-Orange dye (Life Technologies) was used to monitor fluorescence, with filters for fluorescence excitation at 465 nm and for fluorescence emission at 610 nm. […] Each compound was tested in duplicates. The melting temperature (Tm) for each sample was deduced by the ThermoQ Analytical software (HMRI) from the first derivative of the corresponding denaturation curve generated by the LightCycler 480 software. […] All DSF-based analyses were performed using freshly purified protein.

Chain of ERβ LBD (Q92731 261-530): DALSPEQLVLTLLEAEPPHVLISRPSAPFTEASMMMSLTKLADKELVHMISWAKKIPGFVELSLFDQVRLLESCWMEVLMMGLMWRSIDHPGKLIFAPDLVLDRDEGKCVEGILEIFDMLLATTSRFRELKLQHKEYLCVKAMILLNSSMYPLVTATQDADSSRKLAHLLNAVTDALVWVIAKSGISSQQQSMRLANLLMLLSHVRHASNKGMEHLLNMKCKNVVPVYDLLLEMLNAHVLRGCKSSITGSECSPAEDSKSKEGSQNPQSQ

Row | melting temperature shift of ERβ LBD (ERβ LBD) | Compound | hit in DSF screen (able to bind TLX LBD, Tm shift 0.9°C or more), Table S1 (TLX LBD)
1 | shifted upward | C[C@]12CC[C@@H]3c4ccc(O)cc4CC[C@H]3[C@@H]1CC[C@@H]2O [E2, estradiol] | –
2 | – | O=C([O][Hg][CH2]C1COC([CH2][Hg][O]C(=O)c2ccccc2)CO1)c1ccccc1 (stereo not drawn) [benzoyloxy-[[5-(benzoyloxymercuriomethyl)-1,4-dioxan-2-yl]methyl]mercury] | Hits from DSF
3 | – | CN(C)c1ccc(C=CC(=O)[O-])cc1.CN(C)c1ccc(C=CC(=O)[O-])cc1.[Cu+2] [copper 3-(4-dimethylaminophenyl)prop-2-enoate] | Hits from DSF
4 | – | Acetyloxymercury; Phenanthrene | Hits from DSF
5 | – | Daptomycin [reference compound] | Hits from DSF
6 | – | Kauroic acid | Hits from DSF
